Experimental data reported in patent US20070258899A1, “Diagnostic and therapeutic agents” (KARYON-CTT LTD, priority 2006, published 2007).
Starred links: 1 amine or outer side, 2 acyl side, 3 side chain; linkers in the order of their positions; H or OH if unused. Positions of bridges follow the written chain, without caps; N, C: chain ends. Non-standard residues stand in square brackets, D forms with d. Residues, ends and D or L forms follow the SMILES beside them. No end group written: not given here. Cysteamide = C(CS[*:3])N[*:1]; AEEEA = NCCOCCOCCOCC(=O)O

Legend:
LoVo cell line = assay: Cytotoxicity assay (MTT); type: cell-based, human
Procedure: […] The measurement of cell viability was done with MTT (Thiazolyl blue, Sigma M-5655) tetrazolium salt. MTT is cleaved to water-insoluble formazan dye by the “succinate-tetrazolium reductase” system, which is active only in viable cells. After formazan was solubilized by 10% SDS-0.01 M HCl, it was quantified in an ELISA spectrometer (ThermoLabsystems Multiscan EX) at 560 nm. CuSAO2 [trans-bis(salicylaldoximato)copper(II)] 7.5 μg/ml was used as a positive control for 100% toxicity.
Procedure. Cells were trypsinized from the cell culture dish (ø9 cm) with 1 ml of TE for 1-5 minutes and moved to a 50 ml Falcon tube. After this the volume was increased to 20 ml of cell line specific medium and cells were transferred to a Bürker chamber and diluted in medium to a concentration of 2500-3500 cells/100 μl depending on cell line. […]
Next day 40 μl of medium was removed from all wells except from the ones with only medium and one column with cells. […] The next day the cell morphology was analyzed with a microscope. […]
The next day, the MTT assay described above was performed. The viable count (v.c.) was calculated as: [formula]

[1] = system: murine endothelial cell line SVEC4-10; assay: Cell binding assay to immobilized targeting agents (control cell line); type: cell-based, mouse; details: control cell line SVEC4-10; wells coated at 30 μg/ml; 75000 cells, 30 minutes at 37° C.; MTT detection
Procedure: The mouse vascular endothelial cell line SVEC4-10, called herein also “SVEC4-10”, has been described previously by O'Connell et al. in J. Immunol., 1990, 144: 521-525. The cell line was cultured in DMEM medium adjusted to contain 2 mM L-glutamine, 1% penicillin/streptomycin, and 10% fetal bovine serum.
(§1) Preparation of plates for assays. Wells of Reacti-Bind Maleimide activated clear strip plate (Pierce, Prod#. 15150) were coated with targeting agents of this invention at a concentration of 30 μg/ml. The incubation was carried out of overnight at 20° C. The binding buffer containing unbound peptide was removed from the wells.
(§2) The wells were blocked with blocking buffer (0.5% BSA, 0.05% Tween20 in phosphate buffer saline (PBS). PBS was prepared as follows: 40 g of NaCl, 1 g of KCl, 7 g of Na2HPO4×2H2O and 1 g of KH2PO4 were dissolved in 1000 ml of deionized H2O. Blank wells as controls were prepared by treating empty wells with blocking buffer. The plates were incubated 1 hour 30 min at 20° C. After incubation the plate was washed three times with PBS, pH 7.4.
(§3) Cell binding assay. 75000 cells in volume of 150 μl of medium were added into coated wells and were incubated for 30 minutes at 37° C. After cell binding, the wells were washed with PBS for 30 minutes. […] On following day the absorbance of plate was measured at 560 nm with ELISA-reader (ThermoLabsystems, Multiskan EX). […]

HCT-15 cell line = assay: Cell binding assay to immobilized targeting agents; type: cell-based, human; details: wells coated at 30 μg/ml, 75000 cells, 30 minutes at 37° C., MTT detection
Procedure: The human colorectal cancer HCT-15 cell line (ATCC: CCL-225), called herein also “HCT-15”, was cultured in RPMI 1640 medium with 2 mM L-glutamine adjusted to contain 1.5 g/L sodium bicarbonate, 4.5 g/L glucose, 10 mM HEPES, and 1.0 mM sodium pyruvate, 1% penicillin/streptomycin, 10% fetal bovine serum.
as §1, §2, §3

[2] = system: HSC-3 oral cancer cell line; assay: Cell binding assay to immobilized targeting agents; type: cell-based, human; details: wells coated at 30 μg/ml, 75000 cells, 30 minutes at 37° C., MTT detection
Procedure: The human oral squamous cell carcinoma line HSC-3, called herein “HSC-3” (JCRB Cell Bank 0623, National Institute of Health Sciences, Japan) was cultivated in 1:1 DMEM and Ham's F 12 medium containing 10% FBS, 1% penicillin/streptomycin, L-glutamate and sodium pyruvate and 0.4 ng/ml hydrocortisone.
as §1, §2, §3

HCT-15-LM1 cell line = assay: Cell binding assay to immobilized targeting agents; type: cell-based, human; details: wells coated at 30 μg/ml, 75000 cells, 30 minutes at 37° C., MTT detection
Source text: The colorectal cancer cell line HCT-15-LM1 was developed as follows. The cell culture was started with cancer cells from lung metastases which had developed after injection of human colorectal cancer HCT-15 cells into the bloodstream of a mouse. The inoculation procedure was then repeated with HCT-15-LM1 cells leading to the establishment of another metastatic cell line, HCT-15-LM2.
as §1, §2
Cell binding assay. 75000 cells in volume of 150 μl of medium were added into coated wells and were incubated for 30 minutes at 37° C. […] On following day the absorbance of plate was measured at 560 nm with ELISA-reader (ThermoLabsystems, Multiskan EX). […]

[3] = system: mouse fibroblast cell line NIH3T3; assay: Cell binding assay to immobilized targeting agents (control cell line); type: cell-based; details: wells coated at 30 μg/ml, 75000 cells, 30 minutes at 37° C., MTT detection
Procedure: The mouse fibroblast line NIH3T3, called herein also “NIH3T3”, has been described previously by Koga et al. in Gann, 1979, 70: 585-591. The cell line was cultured in DMEM medium adjusted to contain 2 mM L-glutamine, 1% penicillin/streptomycin, and 10% fetal bovine serum.
as §1, §2, §3

[4] = system: C8161T melanoma cell line; assay: Cell binding assay to immobilized targeting agents; type: cell-based, human; details: wells coated at 30 μg/ml, 75000 cells, 30 minutes at 37° C., MTT detection
Procedure: The human melanoma cell line C8161 has been described previously by Welch et al. in Int. J. Cancer, 1991, 47: 227-237. A more metastatic cell line C8161T, called herein also “C8161T”, was developed by culturing cells from a subcutaneous melanoma tumor developed after inoculation of C8161 melanoma cells on the flank of a nude mouse. The cell line was cultured in DMEM medium adjusted to contain 2 mM L-glutamine, 1% penicillin/streptomycin, and 10% fetal bovine serum.
as §1, §2
Cell binding assay. […] On following day the absorbance of plate was measured at 560 nm with ELISA-reader (ThermoLabsystems, Multiskan EX). […]

Athymic nude mice = assay: In vivo toxicity study; details: 1 mg i.v. into tail vein; observed 30 min after injection and 15 min on the following day
Procedure: 1 mg of targeting unit HP203 (described in Example 2) was injected i.v. into the tail vein of three Athymic nude mice in a volume of 100 μl of sterile physiological saline. The behavior of mice was observed during 30 min right after injection and during 15 min on the following day (comparison to non-injected mouse).

[5] = system: lung metastases of colorectal cancer patients; assay: Bio-panning of phage display library on clinical tumor samples; type: binding, human; details: phage-displayed CX7C library; ex vivo panning round three
Source text: Phage display library. Standard procedures according to Smith and Scott (ibid.) were used. Phage display library used for screening of clinical samples was cloned in fUSE5 vector and was of the cyclic structure CX7C. The E. coli strain K91kan was used as host for phage amplification.
Phage display on clinical tumor samples. Tissue samples were surgically removed from lung metastases of colorectal cancer patients. Part of the sample was taken for pathological examination, rest was placed in ice cold DMEM-PI (Dulbecco's medium containing protease inhibitors PI; 10 mM PMSF (Phenyl-methyl-sulphonyl-fluoride), Aprotinin (10 mg/ml) Leupeptin (10 mg/ml)). Tissue samples were minced with a razor blade in a small cell culture plate in 1 ml of DMEM containing protease inhibitors. The samples were transferred to an eppendorf tube and washed with 1 ml DMEM-PI.
Samples were centrifuged at 5000 rpm for 4 min and were then incubated with […] transducing units of phage in 1 ml DMEM-PI at 25° C. for 15 min.
1 ml K91kan bacteria, OD600: 1-1.5, in LB containing 100 μg/ml kanamycin (kan) were infected with the washed pellet containing selectively attached phage particles at 25° C. for 25 min. […]
Then the bacteria were pelleted at 5000 rpm for 15 min. […] For the next rounds of bio-panning of clinical samples the titre of the TBS phage stock was determined as described above. […]

Peptides selectively binding to lung tumors (enriched in bio-panning) [5]	Molecule	binding of cells to immobilized targeting agent (absorbance at 560 nm) [1]	binding of cells to immobilized targeting agent (absorbance at 560 nm) (HCT-15 cell line)	binding of cells to immobilized targeting agent (absorbance at 560 nm) [2]	binding of cells to immobilized targeting agent (absorbance at 560 nm) (HCT-15-LM1 cell line)	binding of cells to immobilized targeting agent (absorbance at 560 nm) [3]	binding of cells to immobilized targeting agent (absorbance at 560 nm) [4]	other results
–	[Cu+2].[O-]c1ccccc1C=NO.[O-]c1ccccc1C=NO [CuSAO2, trans-bis(salicylaldoximato)copper(II), reference compound]	–	–	–	–	–	–	cell killing (LoVo cell line; 7.5 μg/ml, positive control): 100%
–	a*YGFVWGEE*-(Teg-Glu)2-EAT ([dA]YGFVWGEE[AEEEA]E[AEEEA]E-Cysteamide; lactam N-9; not fully specified; printed as a*YGFVWGEE*-(Teg-Glu)2-EAT) [MJ013]	significantly less binding	bind selectively	bind selectively	bind selectively	significantly less binding	bind selectively	–
–	CC(C)C[C@@H]1NC(=O)[C@H](Cc2ccccc2)NC(=O)CNC(=O)[C@H](Cc2ccc(O)cc2)NC(=O)[C@@H](NC(=O)[C@H](C)NC(=O)CNC(=O)[C@H](CC(=O)O)NC(=O)[C@H](C)N)CSSC[C@@H](C(=O)NCCOCCOCCOCC(=O)NCCOCCOCCOCC(=O)NCCOCCOCCOCC(N)=O)NC(=O)[C@H](CCC(N)=O)NC(=O)CNC(=O)[C@H](Cc2c[nH]c3ccccc23)NC1=O [HP203] (H-ADGACYGFLWGQC[AEEEA][AEEEA][AEEEA]-NH2; disulfide 5-13; N-terminus assumed)	–	–	–	–	–	–	toxicity for the tested cell line (viable count, MTT) (LoVo cell line; 5 μg/ml and 138 μg/ml, 24 h, 48 h, 72 h): non-toxic; toxic effect on mice (behavior observed) (Athymic nude mice): did not have any toxic effect
–	Ac-aYGFVWGEE-(Teg-Glu)2-EAT [MJ012]	significantly less binding	bind selectively	bind selectively	bind selectively	significantly less binding	bind selectively	–
selectively binding	CYGFLWGQC	–	–	–	–	–	–	–
selectively binding	CYGFVWGEC (disulfide 1-9 (inferred))	–	–	–	–	–	–	–
